Data taken from ChEMBL document CHEMBL3046493, “Alpha2-Adrenergic Receptors in Intestinal Epithelial Cells: Mechanisms of Signaling, Role, and Regulation” (Med Chem Res, 2004).

target: Nischarin (Rattus norvegicus, UniProt Q4G017); test: Binding affinity to I1 imidazoline binding site in Rattus norvegicus (rat) PC12 cells; type: cell-based, PC-12
Sequence (Q4G017 whole entry): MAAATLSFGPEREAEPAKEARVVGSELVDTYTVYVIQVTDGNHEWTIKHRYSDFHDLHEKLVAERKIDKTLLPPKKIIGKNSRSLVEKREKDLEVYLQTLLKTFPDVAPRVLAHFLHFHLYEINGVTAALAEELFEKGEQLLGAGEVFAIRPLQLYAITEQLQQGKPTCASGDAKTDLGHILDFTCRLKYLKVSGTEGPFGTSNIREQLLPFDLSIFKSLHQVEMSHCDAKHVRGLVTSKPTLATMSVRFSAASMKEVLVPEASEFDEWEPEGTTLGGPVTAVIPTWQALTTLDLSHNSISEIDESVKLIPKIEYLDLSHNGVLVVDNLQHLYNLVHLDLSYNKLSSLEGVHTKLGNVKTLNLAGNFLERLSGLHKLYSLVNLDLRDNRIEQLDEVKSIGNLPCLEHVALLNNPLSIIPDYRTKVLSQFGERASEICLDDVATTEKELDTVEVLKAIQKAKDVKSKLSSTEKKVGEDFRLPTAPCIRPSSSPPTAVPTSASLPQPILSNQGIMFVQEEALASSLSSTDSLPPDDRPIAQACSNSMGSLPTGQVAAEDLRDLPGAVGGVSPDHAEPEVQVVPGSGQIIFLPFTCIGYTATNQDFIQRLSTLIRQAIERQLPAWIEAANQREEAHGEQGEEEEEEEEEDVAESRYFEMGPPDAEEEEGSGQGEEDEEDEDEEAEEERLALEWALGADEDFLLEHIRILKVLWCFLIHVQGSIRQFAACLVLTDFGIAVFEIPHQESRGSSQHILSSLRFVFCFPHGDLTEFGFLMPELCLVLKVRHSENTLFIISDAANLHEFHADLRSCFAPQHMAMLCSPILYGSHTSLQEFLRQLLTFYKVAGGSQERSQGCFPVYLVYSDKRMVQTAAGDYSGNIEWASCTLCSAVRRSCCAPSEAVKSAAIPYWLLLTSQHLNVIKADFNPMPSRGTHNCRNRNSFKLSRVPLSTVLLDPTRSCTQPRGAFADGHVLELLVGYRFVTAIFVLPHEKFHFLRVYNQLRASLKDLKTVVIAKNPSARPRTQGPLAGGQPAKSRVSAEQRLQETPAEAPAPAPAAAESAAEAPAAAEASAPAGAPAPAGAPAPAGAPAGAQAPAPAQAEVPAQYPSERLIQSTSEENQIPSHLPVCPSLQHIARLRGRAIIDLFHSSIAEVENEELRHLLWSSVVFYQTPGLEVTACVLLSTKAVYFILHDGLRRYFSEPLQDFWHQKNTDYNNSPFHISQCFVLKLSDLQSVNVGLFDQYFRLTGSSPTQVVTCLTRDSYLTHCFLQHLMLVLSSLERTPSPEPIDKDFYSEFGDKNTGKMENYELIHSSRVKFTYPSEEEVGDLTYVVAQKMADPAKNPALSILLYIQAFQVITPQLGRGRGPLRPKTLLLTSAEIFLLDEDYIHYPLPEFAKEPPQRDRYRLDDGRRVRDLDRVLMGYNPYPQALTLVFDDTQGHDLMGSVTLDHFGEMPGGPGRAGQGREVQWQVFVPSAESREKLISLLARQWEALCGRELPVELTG

Row | SMILES | Ki [nM]
1 | C[C@@H](CC1=NCCN1)c1ccccc1 | 7240
2 | c1ccc(C2CC2)c(OCC2=NCCN2)c1 [CIRAZOLINE] | 1740
3 | Clc1cc(I)cc(Cl)c1N=C1NCCN1 [PI-CLONIDINE] | 0.0339
4 | c1ccc(CCC2=NCCN2)cc1 [PHENYZOLINE] | 3720
5 | c1ccc(-c2ccccc2CCC2=NCCN2)cc1 | 3240
6 | c1ccc([C@H]2C[C@@H]2C2=NCCN2)cc1 | 11.7
7 | C[C@@H](Oc1ccccc1-c1ccccc1)C1=NCCN1 | 3.98
8 | c1ccc([C@@H]2C[C@H]2C2=NCCN2)cc1 | 347
9 | c1ccc(C(CC2=NCCN2)c2ccccc2)cc1 | 3090
10 | C[C@H](Oc1ccccc1-c1ccccc1)C1=NCCN1 | 129

Further compounds by falling Ki, results first:

Row | Ki [nM] | SMILES
11 | 589 | C[C@H](CC1=NCCN1)c1ccccc1
12 | 513 | C1CN=C(NC(C2CC2)C2CC2)C1
13 | 245 | c1ccc2c(CC3=NCCN3)cccc2c1 [NAPHAZOLINE]
14 | 112 | Clc1cccc(Cl)c1N=C1NCCN1 [CLONIDINE]
15 | 18.6 | C(=C\c1ccccc1)/C1=NCCN1 [TRACIZOLINE]
16 | 11.2 | C1COC(NC(C2CC2)C2CC2)=N1 [RILMENIDINE]
17 | 6.92 | Clc1cccc2c1CN(NC1=NCCN1)C2
18 | 2.34 | c1ccc(-c2ccccc2OCC2=NCCN2)cc1
19 | 1.29 | c1ccc2cc(C3=NCCN3)ccc2c1 [BENAZOLINE]
20 | 0.933 | c1ccc(-c2ccccc2NCC2=NCCN2)cc1
21 | 0.501 | c1ccc(NCC2=NCCN2)cc1 [PHENAMAZOLINE]
